Measurements taken from patent publication US20190105367A1, “ANTIMICROBIAL 4-OXOQUINOLIZINES” (Emergent Product Development Gaithersburg Inc., priority 2011, published 2019).
≈ marks a conversion by molar mass, not a printed value. Like-named read-outs stand apart in the source and are kept apart here.

Key:
[1] = system: S. aureus 101; test: MIC, standard panel of Gram-positive and Gram-negative strains (Example 2); format: cell-based; settings: Staphylococcus aureus
[2] = system: E. cloacae 13047; test: as above; format: cell-based, Enterobacter cloacae
[3] = system: A. baumanii 19606; test: as above; format: cell-based; settings: Acinetobacter baumannii
[4] = system: GN31 Acinetobacter baumannii antibiotic susceptible isolate; test: Chequerboard synergy with polymyxin B, FICI (Example 6); format: cell-based
Excerpt: (§1) A chequerboard technique was used to identify possible synergistic or antagonistic interactions between the 4-oxoquinolizines compounds, levofloxacin and polymyxin B. Levofloxacin was included as a control. […] Final dilutions were made in Mueller-Hinton broth, the specific test medium used for MIC determinations according to CLSI guidelines (CLSI. Methods for Dilution Antimicrobial Susceptibility Tests for Bacteria That Grow Aerobically; Approved Standard-Eighth Edition (2009). CLSI Document M07-A8. CLSI, Wayne, Pa. 19087-1898, USA.). The test medium used was a cation-adjusted Mueller-Hinton Broth II (Becton Dickinson UK Ltd., Oxford Science Park, Oxford, UK, OX4 4DQ).
(§2) The compounds 2, 33 and 35, as well as levofloxacin were tested in combination with polymyxin B on the following isolates: GN31 Acinetobacter baumannii—antibiotic susceptible clinical isolate, GN52 Acinetobacter baumannii—levofloxacin resistant clinical isolate, GN56 Acinetobacter baumannii—levofloxacin resistant clinical isolate, GN48 Klebsiella pneumoniae—NCTC 13443—NDM-1-metallo-β-lactamase and GN10 Pseudomonas aeruginosa—ATCC 27853—antibiotic susceptible reference isolate. All isolates are from the collection maintained at Quotient Bioresearch Ltd., Cambridge, UK.
(§3) The MIC values for the compounds and polymyxin B and levofloxacin were determined by broth microdilution following CLSI guidelines, and the MICs of agents in combination were determined as described by Pillai et. al (Pillai S K, Moellering R C Jr, Eliopoulis G M; Antimicrobial Combinations in Antibiotics in Laboratory Medicine 5th Edition (V. Lorian Ed) (2005) p 365-440). Initial MIC results were used to determine the microtiter plate patterns for the chequerboards. A suitable doubling dilution concentration range was selected such that the combination antibiotic range was at least two concentrations above and four concentrations below the MIC for each isolate. A fixed range of 0.008 to 8 mg/L was tested for polymyxin B except in the case of A. baumannii GN31 where a range of 0.004 to 4 mg/L was tested when in combination with the compounds 2, 33 and 35 as well as levofloxacin.
(§4) From the raw data, fractional inhibitory concentration indices (FICI) were determined for the compounds of the invention and levofloxacin together with polymyxin B for each isolate as follows:
(§5) FICX=concentration of the combination antibiotic in a particular row MIC of the combination drug alone
(§6) FICY=MIC of polymyxin B in combination[…]MIC of the polymyxin B alone
(§7) Additionally isobolograms were created to represent the same data visually. Here, the MIC of polymyxin B was plotted against every concentration of the combination antibiotic up to the MIC.

[5] = system: GN48 Klebsiella pneumoniae NCTC 13443 NDM-1-β-lactamase producing isolate; test: as above; format: cell-based
Excerpt: as §1, §2, §3, §4, §5, §6, §7

[6] = system: GN52 Acinetobacter baumannii levofloxacin resistant clinical isolate; test: as above; format: cell-based
Excerpt: as §1, §2, §3, §4, §5, §6, §7

[7] = system: GN56 Acinetobacter baumannii levofloxacin resistant clinical isolate; test: as above; format: cell-based
Excerpt: as §1, §2, §3, §4, §5, §6, §7

[8] = Cytotoxicity (Example 7); format: cell-based; settings: human, HEPG2 V1 cells
Description: The 4-oxoquinolizine compounds of the invention preferably have a low cytotoxicity against human cells. […].
Cytotoxicity was determined for the instant 4-oxoquinolizine compounds which show low cytotoxicity. (see Table 17 following). […]

[9] = system: A. baumannii J2; test: Preliminary MBC without and with sub-inhibitory polymyxin B (Example 4); format: cell-based, Acinetobacter baumannii; settings: Acinetobacter baumannii
[10] = system: Acinetobacter sp. (H064200250); test: as above; format: cell-based; settings: Acinetobacter
Description: The plates were incubated for 18-20 hours at 37° C. The MBC was read as the lowest concentration at which colony growth was ca. 90% less than the positive control (i.e. usually where single colonies or no colonies were observed).

[11] = system: A. baumannii A489; test: MIC without and with sub-inhibitory polymyxin B (Example 4); format: cell-based, Acinetobacter baumannii
[12] = system: S. aureus 25923; test: MIC, standard panel of Gram-positive and Gram-negative strains (Example 2); format: cell-based; settings: Staphylococcus aureus
[13] = system: S. epidermis 12228; test: as above; format: cell-based, Staphylococcus epidermis; settings: Staphylococcus
[14] = system: E. faecalis 29212; test: as above; format: cell-based, Enterococcus faecalis; settings: Enterococcus faecalis, 29212, read-out: MIC E. faecalis 29212
[15] = system: S. aureus SMITH; test: MIC, panel of quinolone-resistant strains (Example 2); format: cell-based; settings: Staphylococcus aureus, read-out: MIC S. aureus SMITH
[16] = system: S. pneumoniae 49619; test: as above; format: cell-based, Streptococcus pneumoniae; settings: Streptococcus pneumoniae, 49619, read-out: MIC S. pneumoniae 49619
[17] = system: A. baumannii ATCC 19606; test: Preliminary MBC without and with sub-inhibitory polymyxin B (Example 4); format: cell-based, Acinetobacter baumannii; settings: Acinetobacter baumannii
[18] = system: B. thailandensis; format: cell-based, Burkholderia thailandensis; settings: pH 7 vs pH 5
[19] = Enterobacter cloacae, 13047; read-out: MIC E. cloacae 13047
[20] = in combination with polymyxin B
[21] = polymyxin B with the named antibiotic
[22] = J2, read-out: MBC +[…] PB, A. baumannii J2, +[…] polymyxin B, preliminary MBC, 1st experiment
[23] = read-out: MBC +[…] PB, Acinetobacter spp. H064200250, +[…] polymyxin B, preliminary MBC, 1st experiment
[24] = A. baumannii A489, +[…] PB, 2nd experiment
[25] = A. baumannii A489, ratio, PB […], 1st experiment
[26] = Acinetobacter baumannii, A489, A. baumannii A489, +[…] PB, 2nd experiment, read-out: MIC
[27] = Acinetobacter baumannii, A489, read-out: MIC +[…] PB, A. baumannii A489, +[…] polymyxin B, 1st experiment
[28] = ATCC19606, A. baumannii ATCC 19606, +0.06 μg/ml PB, 2nd experiment, read-out: MBC
[29] = ATCC19606, read-out: MBC +0.06 μg/ml PB, A. baumannii ATCC 19606, +0.06 μg/ml polymyxin B, 1st experiment

Compound: Cc1c(-c2cc(F)c(N)cc2F)ccn2c(=O)c(C(=O)O)cc(C3CC3)c12 [Compound 2, 8-(4-amino-2,5-difluorophenyl)-1-cyclopropyl-9-methyl-4-oxo-4H-quinolizine-3-carboxylic acid]
- MIC [1]: 0.125 mg/L (≈ 0.338 µM)
- MIC [2, 19]: 0.25 mg/L (≈ 0.675 µM)
- MIC [3]: 0.06 mg/L (≈ 0.162 µM)
- Combination drug MIC alone [4]: 0.06 mg/L
- FICx [4]: 0.25
- FICy [4]: 0.24
- FICI ([4]; combination with polymyxin B): 0.49
- Synergy ([4]; combination with polymyxin B): Synergy (Synergy (FICI <0.5))
- Combination drug concentration in combination [4, 20]: 0.015 mg/L
- Polymyxin B MIC in combination [4, 21]: 0.06 mg/L
- Combination drug MIC alone [5]: 32 mg/L
- FICx [5]: 0.13
- FICy [5]: 0.50
- FICI ([5]; combination with polymyxin B): 0.63
- Synergy ([5]; combination with polymyxin B): Partial synergy (partial synergy/addition (FICI 0.51 to 0.75))
- Synergy ([5]; combination with polymyxin B, listed as compound 2): partial synergy
- Combination drug concentration in combination [5, 20]: 4 mg/L
- Polymyxin B MIC in combination [5, 21]: 0.25 mg/L
- Combination drug MIC alone [6]: 4 mg/L
- FICx [6]: 0.25
- FICy [6]: 0.24
- FICI ([6]; combination with polymyxin B): 0.49
- Synergy ([6]; combination with polymyxin B): Synergy (Synergy (FICI <0.5))
- Combination drug concentration in combination [6, 20]: 1 mg/L
- Polymyxin B MIC in combination [6, 21]: 0.12 mg/L
- Combination drug MIC alone [7]: 16 mg/L
- FICx [7]: 0.06
- FICy [7]: 0.50
- FICI ([7]; combination with polymyxin B): 0.56
- Synergy ([7]; combination with polymyxin B): Partial synergy (partial synergy/addition (FICI 0.51 to 0.75))
- Combination drug concentration in combination [7, 20]: 1 mg/L
- Polymyxin B MIC in combination [7, 21]: 0.25 mg/L
- IC50 [8]: 250 µM
- MBC ([9]; J2, A. baumannii J2, +[…] PB, preliminary MBC, 2nd experiment, read-out: MBC): ≤ 0.03 mg/L
- MBC [9, 22]: ≤ 0.03 mg/L
- MBC ([10]; Acinetobacter spp. H064200250 (OXA51), +[…] PB, preliminary MBC, 2nd experiment, read-out: MBC): 0.06 mg/L (≈ 0.162 µM)
- MBC [10, 23]: ≤ 0.03 mg/L
- MIC without PB/MIC + PB [11, 24]: ≥128
- MIC without PB/MIC + PB [11, 25]: ≥64
- MIC [11, 26]: ≤ 0.03 mg/L
- MIC [11, 27]: ≤ 0.03 mg/L

Compound: Cc1c(-c2ccc(CN)cc2)ccn2c(=O)c(C(=O)O)cc(C3CC3)c12 [Compound 5, 8-(4-aminomethyl-phenyl)-1-cyclopropyl-9-methyl-4-oxo-quinolizine-3-carboxylic acid]
- MIC [12]: 0.03 mg/L (≈ 0.0861 µM)
- MIC [13]: 0.06 mg/L (≈ 0.172 µM)
- MIC [14]: 0.125 mg/L (≈ 0.359 µM)
- MIC [2, 19]: 0.06 mg/L (≈ 0.172 µM)
- MIC [3]: 0.25 mg/L (≈ 0.718 µM)
- MIC [15]: 0.125 mg/L (≈ 0.359 µM)
- MIC [16]: 0.125 mg/L (≈ 0.359 µM)
- MBC [17, 28]: 0.06 mg/L (≈ 0.172 µM)
- MBC [17, 29]: 0.06 mg/L
- MBC [9, 22]: 0.5 mg/L (≈ 1.44 µM)
- MBC [10]: 4 mg/L (≈ 11.5 µM)
- MBC [10, 23]: 1 mg/L (≈ 2.87 µM)
- MIC without PB/MIC + PB [11, 24]: 16
- MIC without PB/MIC + PB [11, 25]: 8
- MIC [11, 26]: 0.5 mg/L (≈ 1.44 µM)
- MIC [11, 27]: 0.5 mg/L (≈ 1.44 µM)

Compound: Cc1c(-c2ccc(CN)cc2)c(F)cn2c(=O)c(C(=O)O)cc(C3CC3)c12 [Compound 6, 8-(4-aminomethyl-phenyl)-1-cyclopropyl-7-fluoro-9-methyl-4-oxo-quinolizine-3-carboxylic acid]
- Dilutions improvement shift on B. thailandensis MIC90 (between pH 7 and pH 5) [18]: No
- MIC [12]: 0.03 mg/L (≈ 0.0819 µM)
- MIC [13]: 0.03 mg/L (≈ 0.0819 µM)
- MIC [14]: 0.125 mg/L (≈ 0.341 µM)
- MIC ([2]; Enterobacter cloacae, 13047, read-out: MIC E. cloacae 13047): 0.125 mg/L (≈ 0.341 µM)
- MIC [3]: 0.5 mg/L (≈ 1.36 µM)
- MIC [15]: 0.125 mg/L (≈ 0.341 µM)
- MIC [16]: 0.125 mg/L (≈ 0.341 µM)
- MBC [17, 28]: 0.06 mg/L (≈ 0.164 µM)
- MBC [17, 29]: 0.06 mg/L
- MBC ([9]; J2): 0.25 mg/L (≈ 0.682 µM)
- MBC [9, 22]: 1 mg/L (≈ 2.73 µM)
- MBC [10]: 1 mg/L (≈ 2.73 µM)
- MBC [10, 23]: 4 mg/L (≈ 10.9 µM)
- MIC [11, 24]: 0.5 mg/L (≈ 1.36 µM)
- MIC without PB/MIC + PB [11, 24]: 8
- MIC without PB/MIC + PB [11, 25]: 16
- MIC [11, 27]: 0.5 mg/L (≈ 1.36 µM)
